Laboratory results as given in patent US10736859B2, “Eutectic formulations of cyclobenzaprine hydrochloride and amitriptyline hydrochloride” (Tonix Pharma Holdings Limited, priority 2013, dated 2020).
“Also recorded” adds a separate entry of the source.

Tests used:
[1] = DSC, FT-IR/ATR and XRPD compatibility of Cyclobenzaprine HCl with additional excipients, mixed (A) and milled (B) 1:1 mixtures (Example 2); type: physicochemical; settings: for Interactions between Cyclobenzaprine HCl and excipients, Mixture 1:1 (mixed): mixture A, mechanical mixing only; for Interactions between Cyclobenzaprine HCl and excipients, Mixture 1:1 (mixed) / Interactions between Cyclobenzaprine HCl and excipients, Mixture 1:1 (milled): DSC; for Interactions between Cyclobenzaprine HCl and excipients, Mixture 1:1 (milled): mixture B, ground in agate mortar
Procedure: As described above, thermal analytical techniques were further used to assess the compatibility of a drug product (tablet) containing Cyclobenzaprine HCl (API). The compatibility assessment was carried out between the API and additional excipients in a 1:1 ratio. The 1:1 API-excipient mixtures were formed in two different ways: first, by mixing only, and second, by strong milling in an agate mortar. The thermal behavior recorded in the two different mixtures were compared with those of the single components. On the basis of thermal events recorded for each component and for the mixtures, the analyses were carried out by investigating the meanings of the peaks recorded by differential scanning calorimetry (DSC) in mixtures between the API and the excipients. Furthermore, in order to define the nature of the interaction, the Fourier Transformate Infra Red Spectroscopy with Total Attenuated Reflectance (FT-IR/ATR) and X-ray powder diffraction (XRPD) of some samples (API, excipient, and mixed and milled mixtures) was carried out and compared.
Aliquots of API and each excipient were weighed in a ratio of 1:1 and ground in an agate mortar. Then, the homogeneous mixtures were analyzed. These sample mixtures were labeled “B”, while the mechanical-only mixtures were labeled “A.”
The DSC heating curves were obtained by TA 821 DSC Mettler instrument under the following conditions: • Heating rate: 10° C./min • Ambient: Nitrogen 30 mL/min • Sample holder: normal open aluminum pan • Temperature range: from 25° C. to 250° C. • Instrument calibration: Indium sample purity 99.999% Fourier Transformate Infra Red Spectroscopy with Total Attenuated Reflectance (FT-IR/ATR)
The FT-IR spectra were collected with a Perkin Elmer spectrum Two instrument with air as background and 4 cm^−1 resolution.
X-ray powder diffraction (XRPD) tests were performed with the ULTIMA IV instrument (Rigaku), laying the sample on a static sample holder. The X-ray focusing slit has a variable width, interlocked with the q value. The X-ray tube has a Copper target, with a current intensity of 40 mA and a voltage of 40 kV. Radiation was generated by the Cockcroft-Walton method, and was constituted by Kα1 (1.540562 Å) and Kα2 (1.544398 Å). The analytical conditions were: • Fixed Time; sampling width 0.02 deg, scanning rate 1.3 s/step, 2 q range 3.35 deg and sample holder; amorphous glass equiangular 9200/2G, 0.2 mm deep. The sample was pressed with a glass plate.

[2] = DSC compatibility of Amitriptyline HCl with excipients, 1:1 milled mixtures (Example 4); type: physicochemical; settings: Amitriptyline HCl + excipient 1:1, milled in agate mortar
Procedure: Thermal analytical techniques were used to assess the compatibility of the drug product amitriptyline HCl. The compatibility assessment was carried out between the API and the excipients in a 1:1 ratio. On the basis of thermal events recorded for each component and for the mixtures, the analyses were carried out by investigating the peaks recorded by DSC in mixtures between API and the excipients. Differences in thermal profiles between the single compound and the related mixtures were obtained after milling the products in an agate mortar.
DSC was performed substantially as described in Examples 1 and 2. The following raw materials were used: • Amitriptyline HCl • Sodium stearyl fumarate • Stearic acid • Glycerol dibehenate • Magnesium stearate • Pearlitol flash • Pearlitol 200 SO/Mannitol • Unipure DW/Com starch pregelatinized • Crospovidone-Kollidon CL • Silicon Colloidal/Aerosil 200 • Sodium phosphate dibasic • Sodium bicarbonate • Sodium carbonate • Sodium Phosphate dodecahydrate • Sodium Phosphate anhydrous.

[3] = listed as sodium phosphate dihydrate, Sodium phosphate dihydrate
[4] = listed as sodium phosphate anhydrous
[5] = listed as Trisodium Citrate anhydrous
[6] = listed as trisodium citrate dihydrate, citrate dihydrate

## O.O.O=P([O-])([O-])O.[Na+].[Na+] [Di Sodium phosphate di hydrate, Di Sodium phosphate dihydrate]
[1]; Sodium phosphate dihydrate
  Interactions between Cyclobenzaprine HCl and excipients, Mixture 1:1 (mixed): Chemical
  Interactions between Cyclobenzaprine HCl and excipients, Mixture 1:1 (milled): Chemical
[1]; [3]
  Interactions between Cyclobenzaprine HCl and excipients, Mixture 1:1 (mixed): a physical interaction and partial solubilization
  Interactions between Cyclobenzaprine HCl and excipients, Mixture 1:1 (milled): physical interaction

## O=P([O-])([O-])O.[Na+].[Na+] [Di Sodium phosphate anhydrous]
[1]
  Interactions between Cyclobenzaprine HCl and excipients, Mixture 1:1 (mixed): Low chemical
  Interactions between Cyclobenzaprine HCl and excipients, Mixture 1:1 (milled): Low chemical
[1]; [4]
  Interactions between Cyclobenzaprine HCl and excipients, Mixture 1:1 (mixed): physical interaction
  Interactions between Cyclobenzaprine HCl and excipients, Mixture 1:1 (milled): physical interaction
[2]; listed as Sodium phosphate anhydrous
  Interactions between API and excipients, Mixture in formulation (1:1 ratio): No physical interaction

## O=C([O-])CC(O)(CC(=O)[O-])C(=O)[O-].[Na+].[Na+].[Na+] [Tri Sodium Citrate anhydrous, Trisodium citrate anhydrous]
[1]; mixture A 1:1 with Cyclobenzaprine HCl, room temperature, chlorohydrate band 3000-2000 cm-1
  Chemical acid-base reaction by FT-IR/ATR: no chemical acid-base reaction had occurred
[1]
  Interactions between Cyclobenzaprine HCl and excipients, Mixture 1:1 (mixed): Physical
  Interactions between Cyclobenzaprine HCl and excipients, Mixture 1:1 (milled): Physical
[1]; [5]
  Interactions between Cyclobenzaprine HCl and excipients, Mixture 1:1 (mixed): physical complex melting at a lower temperature
  Interactions between Cyclobenzaprine HCl and excipients, Mixture 1:1 (milled): physical complex melting at lower temperature

## O=C([O-])[O-].[Na+].[Na+] [Sodium carbonate]
[2]
  Interactions between API and excipients, Mixture in formulation (1:1 ratio): small physical interaction; also recorded: No interaction

## CCCCCCCCCCCCCCCCCC(=O)O [Stearic acid]
[2]
  Interactions between API and excipients, Mixture in formulation (1:1 ratio): small physical interaction; also recorded: No interaction

## O.O.O.O.O.O.O.O=P([O-])([O-])O.[Na+].[Na+] [Di Sodium phosphate heptahydrate]
[1]
  Interactions between Cyclobenzaprine HCl and excipients, Mixture 1:1 (mixed): Chemical
  Interactions between Cyclobenzaprine HCl and excipients, Mixture 1:1 (milled): Chemical

## Sodium Phosphate dodecahydrate
[2]
  Interactions between API and excipients, Mixture in formulation (1:1 ratio): physical/chemical interaction

## O.O.O=C([O-])CC(O)(CC(=O)[O-])C(=O)[O-].[Na+].[Na+].[Na+] [Trisodium citrate dihydrate]
[1]; citrate dihydrate
  Interactions between Cyclobenzaprine HCl and excipients, Mixture 1:1 (mixed): Chemical
  Interactions between Cyclobenzaprine HCl and excipients, Mixture 1:1 (milled): Chemical
[1]; [6]
  Interactions between Cyclobenzaprine HCl and excipients, Mixture 1:1 (mixed): physico-chemical interaction
  Interactions between Cyclobenzaprine HCl and excipients, Mixture 1:1 (milled): physico-chemical interaction

## O=P([O-])([O-])O.[Na+].[Na+] [Sodium phosphate dibasic]
[2]
  Interactions between API and excipients, Mixture in formulation (1:1 ratio): Physical interaction

## OC[C@@H](O)[C@@H](O)[C@H](O)[C@@H](O)CO [Sorbitol]
[1]
  Interactions between Cyclobenzaprine HCl and excipients, Mixture 1:1 (mixed): Chemical
  Interactions between Cyclobenzaprine HCl and excipients, Mixture 1:1 (milled): Chemical
[1]; listed as sorbitol
  Interactions between Cyclobenzaprine HCl and excipients, Mixture 1:1 (mixed): interaction was observed, due to the solubilization of API by sorbitol
  Interactions between Cyclobenzaprine HCl and excipients, Mixture 1:1 (milled): interaction was observed, due to the solubilization of API by sorbitol

## CCCCCCCCCCCCCCCCCCCCCC(=O)OCC(CO)OC(=O)CCCCCCCCCCCCCCCCCCCCC (stereo not shown) [Glycerol dibehenate]
[2]
  Interactions between API and excipients, Mixture in formulation (1:1 ratio): No interaction
[2]; listed as glycerol dibehenate
  Interactions between API and excipients, Mixture in formulation (1:1 ratio): small physical interaction

## Magnesium stearate
[2]
  Interactions between API and excipients, Mixture in formulation (1:1 ratio): small physical interaction
